What was measured:
[1] = test system: Smn protein; assay: Smn protein assay in cultured cells (SMN HTRF); type: cell-based, human; conditions: SMA patient fibroblast cells (GM03813), 48 hours; for maximum fold (Fold) increase of Smn protein: 7-point concentration data, relative to vehicle control; for EC1.5x for Smn protein expression: 7-point concentration curve, concentration producing 1.5 times Smn protein vs DMSO vehicle
Protocol: The SMN HTRF (homogeneous time resolved fluorescence) assay is used to quantify the level of Smn protein in SMA patient fibroblast cells treated with test compounds.
Cells are thawed and cultured in DMEM-10% FBS for 72 hours. Cells are trypsinized, counted and re-suspended to a concentration of 25,000 cells/mL in DMEM-10% FBS. The cell suspensions are plated at 5,000 cells per well in a 96 well microtiter plate and incubated for 3 to 5 hours. […] Test compounds are serially diluted 3.16-fold in 100% DMSO to generate a 7-point concentration curve. 1 μL of test compound solution is transferred to cell-containing wells and cells are incubated for 48 hours in a cell culture incubator (37° C., 5% CO2, 100% relative humidity). Triplicate samples are set up for each test compound concentration. After 48 hours, the supernatant is removed from the wells and 25 μL of the RIPA lysis buffer, containing protease inhibitors, is added to the wells and incubated with shaking at room temperature for 1 hour. 25 μL of the diluent is added and then 35 μL of the resulting lysate is transferred to a 384-well plate, where each well contains 5 μL of the antibody solution (1:100 dilution of anti-SMN d2 and anti-SMN kryptate in SMN reconstitution buffer). The plate is centrifuged for 1 minute to bring the solution to the bottom of the wells, then incubated overnight at room temperature. Fluorescence for each well of the plate at 665 nm and 620 nm is measured on an EnVision multilabel plate reader (Perkin-Elmer).
The normalized fluorescence signal is calculated for each sample, Blank and vehicle control well by dividing the signal at 665 nm by the signal at 620 nm. Normalizing the signal accounts for possible fluorescence quenching due to the matrix effect of the lysate. The ΔF value (a measurement of Smn protein abundance as a percent value) for each sample well is calculated by subtracting the normalized average fluorescence for the Blank control wells from the normalized fluorescence for each sample well, then dividing this difference by the normalized average fluorescence for the Blank control wells and multiplying the resulting value by 100. The ΔF value for each sample well represents the Smn protein abundance from test compound-treated samples. The ΔF value for each sample well is divided by the ΔF value for the vehicle control wells to calculate the fold increase in Smn protein abundance relative to the vehicle control.

[2] = test system: full length SMN2 minigene mRNA containing SMN2 exon 7; assay: SMN2 minigene mRNA splicing RT-qPCR assay in cultured cells; type: cell-based, human; conditions: Homo sapiens, HEK293-H; HEK293H cells stably transfected with SMN2-A minigene, 24 hours, 7-point concentration curve; concentration giving 1.5-fold full length SMN2 mRNA vs vehicle; read-out: EC1.5x for production of full length SMN2 mRNA
Protocol: The reverse transcription-quantitative PCR-based (RT-qPCR) assay is used to quantify the level of the full length SMN2 minigene mRNA containing SMN2 exon 7 in a HEK293H cell line stably transfected with said minigene and treated with a test compound.
HEK293H cells stably transfected with the SMN2-A minigene construct described above (10,000 cells/well) are seeded in 200 ut, of cell culture medium (DMEM plus 10% FBS, with 200 μg/mL hygromycin) in 96-well flat-bottom plates and the plate is immediately swirled to ensure proper dispersal of cells, forming an even monolayer of cells. Cells are allowed to attach for at least 4-6 hours. Test compounds are serially diluted 3.16-fold in 100% DMSO to generate a 7-point concentration curve. A solution of test compound (1 μL, 200× in DMSO) is added to each cell-containing well and the plate is incubated for 24 hours in a cell culture incubator (37° C., 5% CO2, 100% relative humidity). 2 replicates are prepared for each test compound concentration. The cells are then lysed in Cells-To-Ct lysis buffer and the lysate is stored at −80° C.
Primer SMN Forward A (SEQ ID NO. 1) hybridizes to a nucleotide sequence in exon 7 (nucleotide 22 to nucleotide 40), primer SMN Reverse A (SEQ ID NO. 2) hybridizes to a nucleotide sequence in the coding sequence of Firefly luciferase, SMN Probe A (SEQ ID NO. 3) hybridizes to a nucleotide sequence in exon 7 (nucleotide 50 to nucleotide 54) and exon 8 (nucleotide 1 to nucleotide 21). The combination of these three oligonucleotides detects only SMN1 or SMN2 minigenes (RT-qPCR) and will not detect endogenous SMN1 or SMN2 genes.
The SMN forward and reverse primers are used at final concentrations of 0.4 μM. The SMN probe is used at a final concentration of 0.15 μM. The GAPDH primers are used at final concentrations of 0.2 μM and the probe at 0.15 μM.
The SMN2-minigene GAPDH mix (15 μL total volume) is prepared by combining 7.5 μL of 2×RT-PCR buffer, 0.4 μL of 25×RT-PCR enzyme mix, 0.75 μL of 20×GAPDH primer-probe mix, 4.0075 μL of water, 2 μL of 10-fold diluted cell lysate, 0.06 μL of 100 μM SMN forward primer, 0.06 μL of 100 μM SMN reverse primer, and 0.225 μL of 100 μM SMN probe.
PCR is carried out at the following temperatures for the indicated time: Step 1: 48° C. (15 min); Step 2: 95° C. (10 min); Step 3: 95° C. (15 sec); Step 4: 60° C. (1 min); then repeat Steps 3 and 4 for a total of 40 cycles.
Each reaction mixture contains both SMN2-A minigene and GAPDH primersprobe sets (multiplex design), allowing simultaneous measurement of the levels of two transcripts.
Two SMN spliced products are generated from the SMN2 minigene. The first spliced product containing exon 7, corresponding to full length SMN2 mRNA, is referred to herein using the term “SMN2 minigene FL.” The second spliced product lacking exon 7 is referred to herein using the term “SMN2 minigene Δ7.”
The increase of SMN2 minigene FL mRNA relative to that in cells treated with vehicle control is determined from real-time PCR data using a modified ΔΔCt method (as described in Livak and Schmittgen, Methods, 2001, 25:402-8). The amplification efficiency (E) is calculated from the slope of the amplification curve for SMN2 minigene FL and GAPDH individually. The abundances of SMN2 minigene FL and GAPDH are then calculated as (1+E)^−Ct, where Ct is the threshold value for each amplicon. The abundance of SMN2 minigene FL is normalized to GAPDH abundance. The normalized SMN2 minigene FL abundance from test compound-treated samples is then divided by normalized SMN2 minigene FL abundance from vehicle-treated cells to determine the level of SMN2 FL mRNA relative to vehicle control.

Compound | maximum fold (Fold) increase of Smn protein [1] | melting point | EC (1.5-fold) [2] [µM] | EC1.5x for Smn protein expression [1]
O=c1oc(-c2ccccn2)cc2ccc(N3CCNCC3)cc12 [Cpd 1, 7-(piperazin-1-yl)-3-(pyridin-2-yl)-1H-isochromen-1-one] | ** (a fold increase between >1.2 and ≦1.35 is indicated by two stars (**)) | 179 to 181 °C | 1 to 3 | –
O=c1oc(-c2ccsc2)cc2ccc(N3CCNCC3)cc12 [Cpd 2, 7-(piperazin-1-yl)-3-(thiophen-3-yl)-1H-isochromen-1-one] | ** (a fold increase between >1.2 and ≦1.35 is indicated by two stars (**)) | 240 °C (dec.) | 0.3 to 1 | –
COc1ccc(-c2cc3ccc(N4CCNCC4)cc3c(=O)o2)cc1OC [Cpd 3, 3-(3,4-dimethoxyphenyl)-7-(piperazin-1-yl)-1H-isochromen-1-one] | **** (a fold increase between >1.5 and ≦1.65 is indicated by four stars (****)) | 142 to 143 °C | ≤ 0.1 | *** (an EC1.5× between >0.3 nM and ≦1 nM is indicated by three stars (***))
CN1CCN(c2ccc3cc(-c4ccccn4)oc(=O)c3c2)CC1 [Cpd 4, 7-(4-methylpiperazin-1-yl)-3-(pyridin-2-yl)-1H-isochromen-1-one] | * (A maximum fold increase of ≦1.2 is indicated by one star (*)) | 174 to 176 °C | 3 to 30 | –
C[C@@H]1CN(c2ccc3cc(-c4ccccn4)oc(=O)c3c2)C[C@H](C)N1 [Cpd 5, 7-[(3R,5S)-3,5-dimethylpiperazin-1-yl]-3-(pyridin-2-yl)-1H-isochromen-1-one] | * (A maximum fold increase of ≦1.2 is indicated by one star (*)) | 168 to 170 °C | 1 to 3 | –
COc1ccc(-c2cc3ccc(N4CCN(C)CC4)cc3c(=O)o2)cc1OC [Cpd 16, 3-(3,4-dimethoxyphenyl)-7-(4-methylpiperazin-1-yl)-1H-isochromen-1-one] | *** (a fold increase between >1.35 and ≦1.5 is indicated by three stars (***)) | – | 0.3 to 1 | –
Cc1cn2cc(-c3cc4ccc(N5CCNCC5)cc4c(=O)o3)nc2c(C)n1 [Cpd 62, 3-(6,8-dimethylimidazo[1,2-a]pyrazin-2-yl)-7-(piperazin-1-yl)-1H-isochromen-1-one] | ***** (a fold increase >1.65 is indicated by five stars (*****)) | – | ≤ 0.1 | **** (an EC1.5×≦0.3 nM is indicated by four stars (****))
Cc1cn2cc(-c3cc4ccc(N5CCN6CCC[C@@H]6C5)cc4c(=O)o3)nc2c(C)n1 [Cpd 70, 3-(6,8-dimethylimidazo[1,2-a]pyrazin-2-yl)-7-[(8aR)-hexahydropyrrolo[1,2-a]pyrazin-2(1H)-yl]-1H-isochromen-1-one] | **** (a fold increase between >1.5 and ≦1.65 is indicated by four stars (****)) | – | 0.1 to 0.3 | *** (an EC1.5× between >0.3 nM and ≦1 nM is indicated by three stars (***))
Cc1cn2cc(-c3cc4ccc(C5CCN(C6CCC6)CC5)cc4c(=O)o3)nc2c(C)n1 [Cpd 118, 7-(1-cyclobutylpiperidin-4-yl)-3-(6,8-dimethylimidazo[1,2-a]pyrazin-2-yl)-1H-isochromen-1-one] | **** (a fold increase between >1.5 and ≦1.65 is indicated by four stars (****)) | – | ≤ 0.1 | **** (an EC1.5×≦0.3 nM is indicated by four stars (****))
Cc1cn2cc(-c3cc4ccc(N5C[C@@H](C)N(C6CCC6)[C@@H](C)C5)cc4c(=O)o3)nc2cn1 [Cpd 132, 7-[(3R,5S)-4-cyclobutyl-3,5-dimethylpiperazin-1-yl]-3-(6-methylimidazo[1,2-a]pyrazin-2-yl)-1H-isochromen-1-one] | ***** (a fold increase >1.65 is indicated by five stars (*****)) | – | ≤ 0.1 | **** (an EC1.5×≦0.3 nM is indicated by four stars (****))
Cc1cn2cc(-c3cc4ccc(N5CCN(CCO)[C@H](C)C5)cc4c(=O)o3)nc2cn1 [Cpd 133, 7-[(3R)-4-(2-hydroxyethyl)-3-methylpiperazin-1-yl]-3-(6-methylimidazo[1,2-a]pyrazin-2-yl)-1H-isochromen-1-one] | ***** (a fold increase >1.65 is indicated by five stars (*****)) | – | ≤ 0.1 | **** (an EC1.5×≦0.3 nM is indicated by four stars (****))
Cc1cn2cc(-c3cc4ccc(N5CCN(CCO)[C@@H](C)C5)cc4c(=O)o3)nc2c(C)n1 [Cpd 134, 3-(6,8-dimethylimidazo[1,2-a]pyrazin-2-yl)-7-[(3S)-4-(2-hydroxyethyl)-3-methylpiperazin-1-yl]-1H-isochromen-1-one] | ***** (a fold increase >1.65 is indicated by five stars (*****)) | – | ≤ 0.1 | **** (an EC1.5×≦0.3 nM is indicated by four stars (****))
CCc1nc(C)cn2cc(-c3cc4ccc(N5CCNCC5)cc4c(=O)o3)nc12 [Cpd 150, 3-(8-ethyl-6-methylimidazo[1,2-a]pyrazin-2-yl)-7-(piperazin-1-yl)-1H-isochromen-1-one] | ***** (a fold increase >1.65 is indicated by five stars (*****)) | – | ≤ 0.1 | **** (an EC1.5×≦0.3 nM is indicated by four stars (****))
